The values that follow come from publication PMC7460390, “Secondary Metabolites with Nitric Oxide Inhibition from Marine-Derived Fungus Alternaria sp. 5102” (Marine Drugs, 2020).

Where two headings read alike, the source gives them in different places. A value given as a limit tells only on which side of the number the result lay.

Series [1] has as its system NO production in RAW264.7 cells activated by lipopolysaccharide. The experiment in a line: Inhibition of NO production in LPS-activated RAW264.7 cells (Griess assay). Type of series: cell-based, murine. Particulars: for SI, selectivity index, calculated by CC50/IC50: CC50 (MTT) / IC50 (NO production); for IC50: read-out: IC50, inhibition of LPS-induced NO production. How it is done:
After pre-incubation of RAW 264.7 cells (1.5 × 10^5 cells/mL) with LPS (1 µg/mL) and samples at 37 °C for 24 h, the quantity of nitrite accumulated in the culture medium was measured as an indicator of NO production. Briefly, 50 µL of cell culture medium were mixed with 100 µL Griess reagent, and incubated at room temperature for 10 min. The absorbance was determined at 540 nm wavelength with a microplate reader (Multiskan GO, Thermo Scientific, Waltham, MA, USA).

Series [2] in a line: Cell viability, MTT assay, with LPS treatment. Type of series: cell-based, murine. The note with it: mouse, RAW 264.7 cells, MTT, LPS 1 µg/mL, 24 h, mean ± SD, n = 3. How it is done:
(§1) In this work, all isolated compounds (1–22) were evaluated for their inhibition of nitric oxide (NO) production in RAW264.7 cells activated by lipopolysaccharide (LPS) using the Griess assay with indomethacin as a positive control (Table 3). […] To investigate whether the inhibitory activities of the active compounds were due to their cytotoxicity, the effects of the tested compounds on cell proliferation/viability were evaluated using the MTT method. […] Therefore, further studies are required to clarify the underlying mechanism of the active compounds.
(§2) Cell viability was measured using the conventional MTT assay. RAW 264.7 cells were seeded in 96-well plates at a density of 1.5 × 10^5 cells/mL. After 12 h, the cells were treated with LPS (1 µg/mL) and samples, followed by additional incubation for 24 h at 37 °C. MTT stock solution (2 mg/mL) was added to wells for a total reaction volume of 110 µL. After 4 h incubation, the supernatants were aspirated. The formazan crystals in each well were dissolved in 50 µL of DMSO, and the absorbance was measured using a microplate reader (Multiskan GO, Thermo Scientific, Waltham, MA, USA) at the wavelength of 490 nm. Relative cell viability was evaluated based on the quantity of MTT converted to the insoluble formazan salt. The optical density of formazan generated in the control cells represented 100% viability. The data were expressed as mean percentages of the viable cells compared to the respective control.
A general note: Formazan colour is commonly taken as a measure of viable cells.

For a further series, the system named is RAW 264.7 cells. Briefly: Cell viability, MTT assay, with LPS treatment. Type of series: cell-based, murine. The note with it: up to 100 μM, with LPS treatment for 24 h. How it is done:
as §1, §2

The subject of series [3] is indoleamine 2,3-dioxygenase 1 (IDO1). Also noted: method as in doi:10.1039/C9QO00775J. The note with it: cited from earlier work.
The subject of series [4] is RTX-induced mouse ear edema. Also noted: method as in PMID 10840958. Particulars: 50 µg per ear, topical; cited from earlier work.
The test system of series [5] is spontaneous synchronous Ca^2+ oscillations. On the set-up: method as in PMID 32237750. The note with it: cited from earlier work.
Series [6] relates to NO production in lipopolysaccharide activated RAW264.7 cells. On the set-up: method as in PMID 29197643. Particulars: LPS-activated RAW264.7 cells, in vitro; read-out: IC50, inhibition of NO production; cited from earlier work.
In the next series the test system is C. albicans. Also noted: method as in PMID 22377027. Particulars: against C. albicans; cited from earlier work.
Series [7] relates to iNOS and COX-2 proteins and mRNA expressions in RAW 264.7 macrophages. On the set-up: method as in not given. Particulars: ref not given; cited from earlier work.
Where [8] appears, read: Mus musculus, RAW264.7, 24 h, RAW 264.7 cells, LPS 1 µg/mL, 24 h, Griess assay, mean ± SD, n = 3.
Setting [9] is: RAW 264.7 cells activated with LPS.
The mark [10] stands for this setting: RAW 264.7 cells, LPS 1 µg/mL, 24 h, Griess assay, mean ± SD, n = 3.

For orientation: IC50 means the concentration that inhibits the measured activity by half. As usually defined, the CC50 is the concentration at which the toxic effect on the cells reaches its halfway point.

For `COC(=O)C1Cc2cccc(O)c2C(=O)O1` (centres unmarked) [Compound 18, tenuissimasatin], in series [1] (RAW 264.7 cells), the “SI, selectivity index, calculated by CC50/IC50” value was 1.2. For the same molecule, the concentration for half-maximal inhibition (IC50) in [1] (setting [8]) came out at 24.5 ± 1.06 µM. The molecule also showed a CC50 at 24 h in [2] (setting [9]) of 28.3 ± 2.5 µM.

On to `COc1cc(O)c2c(c1)C1=CC(=O)C(O)=CC1(C)OC2=O` (centres unmarked) [Compound 16, dehydroaltenusin], for which the concentration for half-maximal inhibition (IC50) in [1] (setting [8]) is 1.3 to 41.1 µM.

For `COc1cc(O)c2c(c1)-c1cc(O)c(O)cc1COC2=O` [Compound 17, alteryulactone], the concentration for half-maximal inhibition (IC50) in [1] (Mus musculus, RAW264.7, 24 h) came out at 16.2 ± 2.62 µM. For the same molecule, in the series on RAW 264.7 cells, the “Cytotoxicity (cell proliferation/viability, MTT)” value is listed as “did not show any significant cytotoxicity”. This molecule also came in with a half-maximal cytotoxic concentration (CC50) at 24 h in series [2] of more than 100 µM.

Consider `CC1=CC(=O)C2(C)CCCC(C)(CO)C23CC13` (centres unmarked) [Compound 3, alternaterpenoid A], for which the “SI, selectivity index, calculated by CC50/IC50” value in series [1] (RAW 264.7 cells) is 10.4. In series [2] (setting [9]), this molecule displayed a 50% cytotoxic concentration (CC50) at 24 h of 24.9 ± 1.2 µM.

Take `Cc1cc(=O)c2c(C)cc(O)cc2o1` [Compound 21, 2,5-dimethyl-7-hydroxychromone]: the “SI, selectivity index, calculated by CC50/IC50” value in [1] (RAW 264.7 cells) was 1.2. Also, the IC50 in [1] (setting [8]) was determined as 14.9 ± 1.92 µM. The molecule also returned a CC50 at 24 h in series [2] (setting [9]) of 17.3 ± 2.2 µM.

With `COc1cc(O)c2c(=O)oc3c(c2c1)[C@@H](C)C[C@@H]3O` [Compound 9, phialophriol], the “Cytotoxicity (cell proliferation/viability, MTT)” value in the series on RAW 264.7 cells is “did not show any significant cytotoxicity”. The CC50 at 24 h in series [2] (setting [9]) was more than 100 µM.

On to `COC1=CC(=O)c2c(O)c3c(c4c2[C@]12CC(=O)C[C@H]2[C@@]1(C[C@H](O)[C@H](O)CO1)O4)C[C@](C)(O)[C@H](O)C3` [anthrininone A], for which, in series [3], the “Inhibition activity against IDO1” value is given as “significant inhibition activity”.

For `COc1cc(O)c2c(c1)C1(OC2=O)C(C)=CC(=O)C1O` (racemic) [Compound 10, ±talaroflavone], the “SI, selectivity index, calculated by CC50/IC50” value in series [1] (RAW 264.7 cells) is 1.1. Also, the 50% inhibitory concentration (IC50) in series [1] (setting [8]) is 23.9 ± 3.3 µM. The CC50 at 24 h in series [2] (setting [9]) stood at 27.2 ± 1.6 µM.

Take `COc1cc(O)c2c(=O)oc3c(c2c1)[C@@H](C)CC3=O` [Compound 8, dihydroaltenuenes A]: the concentration for half-maximal inhibition (IC50) in series [1] (setting [8]) is more than 50 µM. The molecule further yielded a CC50 at 24 h in [2] (setting [9]) of more than 100 µM.

As for `CCC(C)[C@]1(O)NC(=O)[C@@H](C)n2c1nc1c(c2=O)C=C(OC)C=CO1` (some centres unmarked) [Oxepinamide A], the “Inhibition rate, ear edema” value in series [4] was 82%.

For `CC(O)C(C)OC(=O)CC1OC(=O)c2c(O)cccc21` (centres unmarked) [Compound 1, alternabenzofuran A], the 50% inhibitory concentration (IC50) in [1] (setting [8]) was more than 50 µM. This molecule also displayed a CC50 at 24 h in [2] (setting [9]) of more than 100 µM.

Take `COc1cc(O)c2c(=O)oc3cc(CO)cc(O)c3c2c1` [Compound 15, alternariol-1’-hydroxy-9-methyl ether]: the “SI, selectivity index, calculated by CC50/IC50” value in [1] (RAW 264.7 cells) is on record as 1.9. Besides, the half-inhibitory concentration (IC50) in series [1] (Mus musculus, RAW264.7, 24 h) turned out to be 26.3 ± 3.99 µM. The same molecule displayed a CC50 at 24 h in [2] of 48.7 ± 1.8 µM.

On to `C=C1CC[C@H]2C(C)(C)[C@@H](O)CC[C@]2(C)[C@H]1CC(=O)[C@]1(O)C=C(CSC[C@H](O)C(=O)OC)C(=O)C1` [alternarin A], for which, in series [5], the “Inhibition of spontaneous synchronous Ca2+ oscillations” value is “effective inhibition”.

Take Amestolkolides B: the 50% inhibitory concentration (IC50) in series [6] is 1.6 ± 0.1 µM.

In the case of `COc1cc([C@H](Cc2ccccc2)NC(C)=O)oc(=O)c1` [pyrophen], the Anti-fungal activity result with C. albicans was “displayed anti-fungal activity”.

Regarding `C[C@H](O)[C@@H](C)OC(=O)C[C@@H]1OC(=O)c2c(O)cccc21` [Compound 2, alternabenzofuran B], the IC50 in [1] (setting [8]) was 18.7 ± 2.35 µM. In addition, the “Cytotoxicity (cell proliferation/viability, MTT)” value with RAW 264.7 cells is recorded as “did not show any significant cytotoxicity”. This molecule also came in with a half-maximal cytotoxic concentration (CC50) at 24 h in series [2] (setting [9]) of more than 100 µM.

Take `Cc1cc(O)cc2oc(=O)c3c(O)cc(O)cc3c12` [Compound 12, alternariol]: in series [1] (RAW 264.7 cells), the “SI, selectivity index, calculated by CC50/IC50” value is reported as 3.0. Besides, the IC50 in [1] (Mus musculus, RAW264.7, 24 h) was 16.6 ± 1.6 µM. The CC50 at 24 h in series [2] is 50.4 ± 2.1 µM.

For `COC(=O)C[C@@H]1OC(=O)c2c(O)cccc21` [Compound 5, isobenzofuranone A], the half-inhibitory concentration (IC50) in series [1] (setting [8]) worked out at 41.1 ± 4.78 µM. Further, the cytotoxic concentration (CC50) at 24 h in [2] (setting [9]) is more than 100 µM.

Take `COc1cc(O)c2c(c1)C1=C(O)C(=O)C[C@@]1(C)OC2=O` [Compound 7, (R)-1,6-dihydroxy-8-methoxy-3a-methyl-3,3a-dihydrocyclopenta[c]isochromene-2,5-dione]: the “SI, selectivity index, calculated by CC50/IC50” value in series [1] (RAW 264.7 cells) is recorded as 4.0. Besides, the IC50 is less than 10 µM in series [1] (setting [8]) and 5.2 ± 1.96 µM in series [1] (setting [10]). Further, the midpoint of cytotoxicity in series [2] (setting [9]), the CC50 at 24 h, lay at 20.6 ± 2.3 µM.

In the case of `COc1cc(O)c(C(=O)O)c(-c2cc(O)c(O)cc2C)c1` [Compound 20, altenusin], the IC50 in series [1] (Mus musculus, RAW264.7, 24 h) came out at 25.4 ± 3.03 µM. This molecule also yielded a cytotoxic concentration (CC50) at 24 h in [2] of more than 100 µM.

With `C[C@H]1CC(=O)OC[C@H]1O` [Compound 22, walterolactone C], in [1] (RAW 264.7 cells), the “SI, selectivity index, calculated by CC50/IC50” value is reported as 3.1. In addition, the IC50 in series [1] (setting [8]) came out at 14.9 ± 1.92 µM. This molecule displayed a CC50 at 24 h in series [2] (setting [9]) of 46.4 ± 1.7 µM.

Take `COc1cc(O)c2c(=O)oc3c(O)c(O)cc(C)c3c2c1` [Compound 14, 3’-hydroxyalternariol 5-O-methyl ether]: the IC50 in [1] (setting [8]) was less than 10 µM; in series [1] (setting [10]), 5.9 ± 0.48 µM. In the series with RAW 264.7 cells, the “Cytotoxicity (cell proliferation/viability, MTT)” value is recorded as “did not show any significant cytotoxicity”. For the same molecule, in series [2], the CC50 was more than 100 µM.

For the molecule `COc1cc(O)c2c(=O)oc3cc(O)cc(C)c3c2c1` [Compound 11, alternariol-9-O-methyl ether], the IC50 in series [1] (Mus musculus, RAW264.7, 24 h) was 39 ± 1.92 µM. The “Cytotoxicity (cell proliferation/viability, MTT)” value in the series on RAW 264.7 cells is “did not show any significant cytotoxicity”. In series [2], this molecule registered a CC50 at 24 h of more than 100 µM.

Turning to `CC1(C)CCCC2(C)C(=O)C=C(CO)C3CC312` (centres unmarked) [Compound 4, alternaterpenoid B], the IC50 in [1] (setting [8]) was approximately 50 µM. In series [2] (setting [9]), the CC50 at 24 h was more than 100 µM.

As to `CC1=C[C@@H](O)[C@H]2C[C@@H](C)C[C@@H](C)[C@@H]2[C@H]1/C=C/C=C/C(=O)O` [tanzawaic acid Q], the “Effect on LPS-induced iNOS and COX-2 proteins and mRNA expressions” value in [7] is on record as “inhibited”.

Consider `COc1cc(O)c2c(=O)oc3cc(O)c(C)cc3c2c1` [Compound 13, 2-methyl-9-methoxy alternariol], for which, in series [1] (RAW 264.7 cells), the “SI, selectivity index, calculated by CC50/IC50” value was 2.0. In [1] (Mus musculus, RAW264.7, 24 h), the half-maximal inhibitory concentration (IC50) was found to be 24.5 ± 4.51 µM. The CC50 at 24 h in series [2] stood at 48.2 ± 2.6 µM.
